Measurements as given in US20050112573A1, “Method of detecting toxic substance” (priority 2001, published 2005).

Tested on: yeast genes (level of expressed mRNA)
Assay: DNA chip analysis of expressed mRNA of yeast genes after 2 h culture with a toxic chemical substance
Type: cell-based, Saccharomyces cerevisiae S288C
Procedure: Yeast (Saccharomyces cerevtisiae S288C (α SUC2mal mel gap2 CUP1)) were cultured at 25° C. on YPD medium (yeast extract 1%, polypepton 2%, glucose 2%). One of toxic chemical substances was added to the cell at logarithmic growth phase, and the cell was further cultured for two hours. Cell was cultured without any chemical substance in the same condition, and was used as control. Concentrations of the chemical substances were defined to inhibit the growth of the yeast but not lead to death.
After the completion of cultivation, the culture was centrifuged to collect the cells. To the cells, sodium acetate buffer (50 mM sodium acetate, 10 mM EDTA, 1% SDS) was added, and the mixture was shaken at 65° C. for five minutes, followed by returning to room temperature, and obtaining the supernatant, which procedure was repeated two times. To the supernatant, ½ amount of a solution of phenol/chloroform was added, and the mixture was centrifuged to give a supernatant, which was added with an equal amount of chloroform, and the mixture was centrifuged to give a supernatant. To the supernatant, an equal amount of isopropanol containing 0.3 M sodium acetate was added, and the mixture was allowed to stand at room temperature for 30 minutes, after which the mixture was centrifuged to give a sediment of the whole RNAs. Seventy % ethanol was added to the sediment, and the mixture was again centrifuged to give a sediment, which was then dried and dissolved in water. mRNA was isolated from the whole RNAs as followings. In view of the fact that a poly A chain is attached to the 3′ terminus of mRNA, a polynucleotide having a poly T structure which was immobilized on the surface of latex beads was used to trap the mRNA, and then the mRNA was washed and eluted with spine column (Oligotex-dT30<Super>mRNA Purification Kit, Takara). Reverse transcription of the mRNA was conducted with a reverse transcriptase (Super Script II Reverse Transcriptase; catalogue No. 18064-014, GibcoBRL) using fluorescence-labeled nucleotides to give cDNAs that were introduced with Cy3-dUTP or Cy5-dUTP during the reverse transcription.
The labeled cDNAs were dissolved in TE buffer (10 mM Tris-HCl/1 mM EDTA, pH8.0), and the solution was dropped on the DNA chip containing the whole genes of yeast (DNA Chip Research Inc. Japan) so that the cDNAs were hybridized on the DNA chip at 65° C. for over 12 hours. The fluoresces intensity of the DNA chip was read with a scanner, and the ratio relative to the fluorescence intensity resulting from the absence of chemical substance was estimated as the following, which is shown in Tables 1 to 9: [formula]
In the Tables, “Intensity” indicated in the rightmost column is a value of the level of expressed mRNA of each gene in control cells as divided by the average level of the expressions of the whole genes.

## γ-hexachlorocyclohexane [(7)]
Yeast gene YNL074C, ratio to control without chemical substance, 2 h culture
  The level of expressed mRNA in the presence of chemical substance/: 1.1
Yeast gene YNL092W, ratio to control without chemical substance, 2 h culture
  The level of expressed mRNA in the presence of chemical substance/: 1.6
Yeast gene YNL093W
  The level of expressed mRNA in the presence of chemical substance/The level of expressed mRNA in the absence of chemical substance: 1.4
Yeast gene YNL115C, ratio to control without chemical substance, 2 h culture
  The level of expressed mRNA in the presence of chemical substance/: 2.4
Yeast gene YNL156C, ratio to control without chemical substance, 2 h culture
  The level of expressed mRNA in the presence of chemical substance/: 1.9
Yeast gene YNL234W, ratio to control without chemical substance, 2 h culture
  The level of expressed mRNA in the presence of chemical substance/: 1.2
Yeast gene YNL281W, ratio to control without chemical
  The level of expressed mRNA in the presence of chemical substance/: 1.2
Yeast gene YNL305C, ratio to control without chemical
  The level of expressed mRNA in the presence of chemical substance/: 1.7
Yeast gene YNL333W
  The level of expressed mRNA in the presence of chemical substance/The level of expressed mRNA in the absence of chemical substance: 2.9
Yeast gene YNR010W
  The level of expressed mRNA in the presence of chemical substance/The level of expressed mRNA in the absence of chemical substance: 1.5
Yeast gene YNR068C, ratio to control without chemical
  The level of expressed mRNA in the presence of chemical substance/: 1.8
Yeast gene YNR069C
  The level of expressed mRNA in the presence of chemical substance/The level of expressed mRNA in the absence of chemical substance: 1.4
Yeast gene YNR072W
  The level of expressed mRNA in the presence of chemical substance/in the absence of chemical substance: 1.5
Yeast gene YOL013C
  The level of expressed mRNA in the presence of chemical substance/The level of expressed mRNA in the absence of chemical substance: 1.7
Yeast gene YOL032W, ratio to control without chemical
  The level of expressed mRNA in the presence of chemical substance/: 1.4
Yeast gene YOL036W, ratio to control without chemical
  The level of expressed mRNA in the presence of chemical substance/: 1.0
Yeast gene YOL047C, ratio to control without chemical
  The level of expressed mRNA in the presence of chemical substance/: 1.3
Yeast gene YOL071W, ratio to control without chemical
  The level of expressed mRNA in the presence of chemical substance/: 2.0
Yeast gene YOL082W, ratio to control without chemical
  The level of expressed mRNA in the presence of chemical substance/: 2.5
Yeast gene YOL083W, ratio to control without chemical
  The level of expressed mRNA in the presence of chemical substance/: 3.1
Yeast gene YOL096C
  The level of expressed mRNA in the presence of chemical substance/in the absence of chemical substance: 1.7
Yeast gene YOL117W, ratio to control without chemical
  The level of expressed mRNA in the presence of chemical substance/: 1.6
Yeast gene YOL131W, ratio to control without chemical
  The level of expressed mRNA in the presence of chemical substance/: 1.3
Yeast gene YOL150C, ratio to control without chemical substance, 2 h culture
  The level of expressed mRNA in the presence of chemical substance/: 2.4
Yeast gene YOL162W, ratio to control without chemical
  The level of expressed mRNA in the presence of chemical substance/: 2.0
Yeast gene YOL164W
  The level of expressed mRNA in the presence of chemical substance/The level of expressed mRNA in the absence of chemical substance: 2.2
Yeast gene YOR019W, ratio to control without chemical
  The level of expressed mRNA in the presence of chemical substance/: 2.8
Yeast gene YOR036W
  The level of expressed mRNA in the presence of chemical substance/The level of expressed mRNA in the absence of chemical substance: 1.8
Yeast gene YOR117W
  The level of expressed mRNA in the presence of chemical substance/The level of expressed mRNA in the absence of chemical substance: 3.3
Yeast gene YOR124C
  The level of expressed mRNA in the presence of chemical substance/The level of expressed mRNA in the absence of chemical substance: 1.1
Yeast gene YOR132W
  The level of expressed mRNA in the presence of chemical substance/The level of expressed mRNA in the absence of chemical substance: 1.4
Yeast gene YOR157C
  The level of expressed mRNA in the presence of chemical substance/The level of expressed mRNA in the absence of chemical substance: 1.2
Yeast gene YOR180C
  The level of expressed mRNA in the presence of chemical substance/in the absence of chemical substance: 0.8
Yeast gene YOR181W
  The level of expressed mRNA in the presence of chemical substance/The level of expressed mRNA in the absence of chemical substance: 0.7
Yeast gene YOR185C
  The level of expressed mRNA in the presence of chemical substance/The level of expressed mRNA in the absence of chemical substance: 1.3
Yeast gene YOR197W, ratio to control without chemical
  The level of expressed mRNA in the presence of chemical substance/: 0.9
Yeast gene YOR198C
  The level of expressed mRNA in the presence of chemical substance/The level of expressed mRNA in the absence of chemical substance: 1.6
Yeast gene YOR259C
  The level of expressed mRNA in the presence of chemical substance/The level of expressed mRNA in the absence of chemical substance: 1.3
Yeast gene YOR261C
  The level of expressed mRNA in the presence of chemical substance/The level of expressed mRNA in the absence of chemical substance: 1.9
Yeast gene YOR288C
  The level of expressed mRNA in the presence of chemical substance/The level of expressed mRNA in the absence of chemical substance: 2.0
Yeast gene YOR355W
  The level of expressed mRNA in the presence of chemical substance/The level of expressed mRNA in the absence of chemical substance: 1.1
Yeast gene YOR363C
  The level of expressed mRNA in the presence of chemical substance/in the absence of chemical substance: 0.7
Yeast gene YOR383C
  The level of expressed mRNA in the presence of chemical substance/The level of expressed mRNA in the absence of chemical substance: 8.0
Yeast gene YPL087W, ratio to control without chemical
  The level of expressed mRNA in the presence of chemical substance/: 4.2
Yeast gene YPL089C
  The level of expressed mRNA in the presence of chemical substance/The level of expressed mRNA in the absence of chemical substance: 0.9
Yeast gene YPL109C
  The level of expressed mRNA in the presence of chemical substance/The level of expressed mRNA in the absence of chemical substance: 1.8
Yeast gene YPL149W
  The level of expressed mRNA in the presence of chemical substance/The level of expressed mRNA in the absence of chemical substance: 1.2
Yeast gene YPL154C
  The level of expressed mRNA in the presence of chemical substance/The level of expressed mRNA in the absence of chemical substance: 1.5
Yeast gene YPL196W, ratio to control without chemical
  The level of expressed mRNA in the presence of chemical substance/: 2.4
Yeast gene YPL206C, ratio to control without chemical
  The level of expressed mRNA in the presence of chemical substance/: 1.2
Yeast gene YPL222W, ratio to control without chemical
  The level of expressed mRNA in the presence of chemical substance/: 1.1
Yeast gene YPR023C, ratio to control without chemical
  The level of expressed mRNA in the presence of chemical substance/: 1.2
Yeast gene YPR103W
  The level of expressed mRNA in the presence of chemical substance/The level of expressed mRNA in the absence of chemical substance: 1.6
Yeast gene YPR108W
  The level of expressed mRNA in the presence of chemical substance/The level of expressed mRNA in the absence of chemical substance: 1.6
Yeast gene YPR151C, ratio to control without chemical
  The level of expressed mRNA in the presence of chemical substance/: 4.4
Yeast gene YPR184W
  The level of expressed mRNA in the presence of chemical substance/in the absence of chemical substance: 1.3
